Results on 17 compounds are retold here after patent publication US20260070917A1, “CYCLIN DEPENDENT KINASE DEGRADERS AND METHODS OF USE THEREOF” (Differentiated Therapeutics Inc, priority 2023, published 2026).

The target in assay [1] is T1, CDK2 (Homo sapiens, UniProt P24941).
T1 construct: host or cells: HEK293-CDK2-Hibit
Kind of assay: HiBit Assay Protocol for CDK2 (HIBIT protein quantification, degradation). It counts as cell-based. Particulars: HEK293-CDK2-Hibit cells, compound treatment for 6 hours; for DC50: ABS DC50. As for the experimental part: HiBit Assay Protocol for CDK2
• 1. The culture medium for HEK293-CDK2-Hibit cells was prepared using DMEM with 10% FBS. • 2. Cells were cultivated in T-75 flasks in a cell culture incubator set at 37° C., 5% CO2, 95% relative humidity. Cells were allowed to reach 80-90% confluence before detaching and splitting. • 3. Cultivated cells were rinsed in T-75 flasks with 5 mL PBS. Aspirate off Added was 1.5 mL trypsin, and the cells were incubated at 37° C. for approximately 5 minutes or until the cells detached and floated. • 4. Trypsin was inactivated by adding excess serum containing medium. • 5. Cells were harvested from flask into cell culture medium and then the cell number was counted. HEK293-CDK2-Hibit cells were seeded into 384-well plate (cell density: 1.6×10^5 cells/well/50 uL medium) in DMEM medium according to the plate map below and incubated overnight at 37° C. and 5% CO2. • Note: Cell Cultured Medium: 90% DMEM+10% FBS+1% Penicillin-Streptomycin Liquid
(§1) • 1. Test compounds were dissolved at 10 mM DMS stock solution. 45 uL of stock solution was transferred to a 384 pp-plate. A 3-fold, 10-point dilution was performed via transferring 15 uL compound into 30 uL DMSO by using TECAN liquid handler. • 2. The plates were spinned at room temperature at 1,000 RPM for 1 minute. • 3. 50 nL of diluted compound was transferred from compound source plate into the cell plate by Echo. • 4. After compound treatment for 6 hours, the plate was removed from incubators and equilibrated at room temperature for 15 minutes. The HiBit reagent was prepared, consisting of the following ratios: 10 mL of Nano-Glo®-HiBiT Lytic Buffer, 200 μL of Nano-Glo®-HiBiT Lytic Substrate and 100 uL of LgBiT Protein, mixed thoroughly. 20 μL of HiBit reagent was added into each well and the plates were spinned at room temperature at 1,000 RPM for 1 minute to be detected. Then the plates were shaken at 600 RPM at room temperature for 20 minutes, and read by EnVision. • 5. The inhibition activity was calculated following the formula below:
(§2) [formula] • Note: Where HC is obtained from cells treated with […] only; LC is obtained from culture medium only. • 6. ABS DC50 was calculated by fitting the Curve using Xlfit (v5.3.1.3), equation 201: […]
In general terms: With HiBiT, luminescence reflects the tagged protein that the partner subunit can reach.

In assay [2] the target is T2, CCNE1 (Homo sapiens, UniProt P24864).
T2 construct: host or cells: HEK293-CCNE1-Hibit
T2 sequence (P24864 whole entry): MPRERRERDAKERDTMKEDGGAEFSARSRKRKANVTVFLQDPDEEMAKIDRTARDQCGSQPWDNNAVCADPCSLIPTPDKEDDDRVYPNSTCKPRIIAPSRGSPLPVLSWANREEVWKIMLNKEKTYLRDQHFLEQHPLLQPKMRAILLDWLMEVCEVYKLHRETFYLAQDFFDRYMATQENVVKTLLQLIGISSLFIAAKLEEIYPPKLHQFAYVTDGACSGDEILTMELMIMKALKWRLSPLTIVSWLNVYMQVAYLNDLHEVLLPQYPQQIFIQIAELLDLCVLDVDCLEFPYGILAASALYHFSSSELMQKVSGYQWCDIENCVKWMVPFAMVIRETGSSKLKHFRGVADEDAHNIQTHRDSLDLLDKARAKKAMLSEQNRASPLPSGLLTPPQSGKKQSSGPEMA
Kind of assay: HiBit Assay Protocol for CCNE1 (HIBIT protein quantification, degradation). It counts as cell-based. Conditions: HEK293-CCNE1-Hibit cells, compound treatment for 6 hours. Here is the method: HiBit Assay Protocol for CCNE1
• 1. The culture medium for HEK293-CCNE1-Hibit cell was prepared using EMEM with […]. • 2. Cells were cultivated in T-75 flasks in a cell culture incubator set at 37° C., 5% CO2, 95% relative humidity. Cells were allowed to reach 80-90% confluence before detaching and splitting. • 3. Cultivated cells were rinsed in T-75 flasks with 5 mL PBS. Aspirate off Added was 1.5 mL trypsin, and the cells were incubated at 37° C. for approximately 5 minutes or until the cells detached and floated. • 4. Trypsin was inactivated by adding excess serum containing medium. • 5. Cells were harvested from flask into cell culture medium and then the cell number was counted. HEK293-CCNE1-Hibit cell were seeded into 384-well plate (cell density: 1.6×10^5 cells/well/50 uL medium) in EMEM medium according to the plate map below and incubated overnight at 37° C. and […]. • Note: Cell Cultured Medium: 90% EMEM+10% FBS+1% Penicillin-Streptomycin Liquid
as §1, with “mM DMSO” for “mM DMS”, “45 μL” for “45 uL”, “100 μL” for “100 uL”, “Protein, mix” for “Protein, mixed”
as §2

Each structure is given as a SMILES string.

Consider `CC1CCCC1N1C(=O)C2(CC2)c2cnc(NC3CCN(S(=O)(=O)N4CC5(CCN(C(=O)CCCCc6cccc7c6n(C)c(=O)n7C6CCC(=O)NC6=O)CC5)C4)CC3)nc21` (stereo not drawn) [Compound 9], for which the “CDK2 HIBIT Protein Quantification Maximum” value in assay [1] came out at 48.4%.
On to `Cn1nc(N2CCC(=O)NC2=O)c2ccc(C3CCN(Cc4cccc(S(=O)(=O)N5CCC(Nc6ncc7c(n6)N([C@@H]6CCC[C@@H](O)C6)C(=O)C76CCC6)CC5)c4)CC3)cc21` [Compound 174, 1-[6-(1-{[3-(4-{7′-[(1R,3R)-3-Hydroxycyclohexyl]-6′-oxospiro[cyclobutane-1,5′-pyrrolo[2,3-d]pyrimidin]-2′-ylamino}piperidin-1-ylsulfonyl)phenyl]methyl}piperidin-4-yl)-1-methylindazol-3-yl]-1,3-diazinane-2,4-dione], for which, in assay [1], the “CDK2 HIBIT Protein Quantification Maximum” value is listed as 82% and half-maximal degradation (DC50) was put at 3.58 nM. Also, the “CCNE1 HIBIT Protein Quantification Maximum” value in assay [2] was 47%.
The corresponding values for `CC1CN(C(C)c2cccc(S(=O)(=O)N3CC[C@H](Nc4ncc5c(n4)N([C@@H]4CCC[C@@H](O)C4)C(=O)C54CC4)[C@H](F)C3)c2)CCC1c1ccc2c(N3CCC(=O)NC3=O)nn(C)c2c1` (stereo partly drawn) [Compound 189] are 88%, 2.62 nM and 47%.
As for `CC1CCCC1N1C(=O)C2(CC2)c2cnc(NC3CCN(S(=O)(=O)N4CCN(C(=O)CCCc5ccc6c(c5)n(C)c(=O)n6C5CCC(=O)NC5=O)CC4)CC3)nc21` (stereo not drawn) [Compound 7], the “CDK2 HIBIT Protein Quantification Maximum” value in assay [1] was 37.9%. Besides, the “CCNE1 HIBIT Protein Quantification Maximum” value in assay [2] turned out to be 21.2%.
On the same counts, the results for `CC1CCCC1N1C(=O)C2(CC2)c2cnc(NC3CCN(S(=O)(=O)N4CC5CN(C(=O)CCCCCCCc6cccc7c6n(C)c(=O)n7C6CCC(=O)NC6=O)CC54)CC3)nc21` (stereo not drawn) [Compound 5] are 24.9% and 21.9%.
As for `CC1CCCC1N1C(=O)C2(CC2)c2cnc(NC3CCN(S(=O)(=O)C4CCN(C(=O)CCCCCc5cccc6c5n(C)c(=O)n6C5CCC(=O)NC5=O)C4)CC3)nc21` (stereo not drawn) [Compound 1, 3-{3-Methyl-4-[6-(3-{4-[7′-(2-methylcyclopentyl)-6′-oxospiro[cyclopropane-1,5′-pyrrolo[2,3-d]pyrimidin]-2′-ylamino]piperidin-1-ylsulfonyl}pyrrolidin-1-yl)-6-oxohexyl]-2-oxo-1,3-benzodiazol-1-yl}piperidine-2,6-dione], in assay [1], the “CDK2 HIBIT Protein Quantification Maximum” value worked out at 70.2% and the DC50 (in general, the concentration at which degradation of the target reaches its halfway point) was determined as 16 nM. Also, the “CCNE1 HIBIT Protein Quantification Maximum” value in assay [2] worked out at 30.9%.
The corresponding values for `CC1CCCC1N1C(=O)C2(CC2)c2cnc(NC3CCN(S(=O)(=O)N4CCC(CN5CCC(c6cccc7c6n(C)c(=O)n7C6CCC(=O)NC6=O)CC5)CC4)CC3)nc21` (stereo not drawn) [Compound 14, 3-(3-Methyl-4-{1-[(1-{4-[7′-(2-methylcyclopentyl)-6′-oxospiro[cyclopropane-1,5′-pyrrolo[2,3-d]pyrimidin]-2′-ylamino]piperidin-1-ylsulfonyl}piperidin-4-yl)methyl]piperidin-4-yl}-2-oxo-1,3-benzodiazol-1-yl)piperidine-2,6-dione] are 57.4%, 4.56 nM and 37.7%.
Regarding `CC1CCCC1N1C(=O)C2(CC2)c2cnc(NC3CCN(S(=O)(=O)N4CCC5(CCN(C(=O)CCCCc6cccc7c6n(C)c(=O)n7C6CCC(=O)NC6=O)C5)C4)CC3)nc21` (stereo not drawn) [Compound 10], in assay [1], the “CDK2 HIBIT Protein Quantification Maximum” value worked out at 38.9%.
As for `C[C@@H](c1cc(S(=O)(=O)N2CC[C@H](Nc3ncc4c(n3)N([C@@H]3CCC[C@@H](O)C3)C(=O)C43CC3)[C@H](F)C2)ccc1F)N1CCN(c2ccc3c(N4CCC(=O)NC4=O)nn(C)c3c2)CC1` [Compound 211], in assay [1], the “CDK2 HIBIT Protein Quantification Maximum” value was found to be 88% and it took 12.1 nM to reach half-maximal degradation (DC50). The “CCNE1 HIBIT Protein Quantification Maximum” value in assay [2] is 40%.
For the compound `CC1CCCC1N1C(=O)C2(CC2)c2cnc(NC3CCN(S(=O)(=O)N4CC5(CCCN(C(=O)CCCCCCCc6cccc7c6n(C)c(=O)n7C6CCC(=O)NC6=O)C5)C4)CC3)nc21` (stereo not drawn) [Compound 3], in assay [1], the “CDK2 HIBIT Protein Quantification Maximum” value was found to be 34.6%. Besides, the “CCNE1 HIBIT Protein Quantification Maximum” value in assay [2] is 19.4%.
Take `CC1CCCC1N1C(=O)C2(CC2)c2cnc(NC3CCN(S(=O)(=O)C4CCN(C(=O)CCCCc5cccc6c5n(C)c(=O)n6C5CCC(=O)NC5=O)C4)CC3)nc21` (stereo not drawn) [Compound 11]: the “CDK2 HIBIT Protein Quantification Maximum” value in assay [1] is given as 49.5%. In addition, in assay [2], the “CCNE1 HIBIT Protein Quantification Maximum” value came out at 23.6%.
Turning to `CC(C)C1CC(c2ccc3c(N4CCC(=O)NC4=O)nn(C)c3c2)CCN1C(C)c1cccc(S(=O)(=O)N2CC[C@H](Nc3ncc4c(n3)N([C@@H]3CCC[C@@H](O)C3)C(=O)C43CC3)[C@H](F)C2)c1` (stereo partly drawn) [Compound 190], in assay [1], the “CDK2 HIBIT Protein Quantification Maximum” value turned out to be 70% and the DC50 was found to be 13.6 nM. The “CCNE1 HIBIT Protein Quantification Maximum” value in assay [2] is recorded as 27%.
On the same counts, the results for `CC1CCCC1N1C(=O)C2(CC2)c2cnc(NC3CCN(S(=O)(=O)N4CCN(C(=O)CCCCc5cccc6c5n(C)c(=O)n6C5CCC(=O)NC5=O)CC4)CC3)nc21` (stereo not drawn) [Compound 8] are 59.2%, 8.8 nM and 24.7%.
On to `CC1CCCC1N1C(=O)C2(CC2)c2cnc(NC3CCN(S(=O)(=O)N4CCC5(CCCN5C(=O)CCCCCCCc5cccc6c5n(C)c(=O)n6C5CCC(=O)NC5=O)C4)CC3)nc21` (stereo not drawn) [Compound 2, 3-{3-Methyl-4-[8-(7-{4-[7′-(2-methylcyclopentyl)-6′-oxospiro[cyclopropane-1,5′-pyrrolo[2,3-d]pyrimidin]-2′-ylamino]piperidin-1-ylsulfonyl}-1,7-diazaspiro[4.4]nonan-1-yl)-8-oxooctyl]-2-oxo-1,3-benzodiazol-1-yl}piperidine-2,6-dione], for which the “CDK2 HIBIT Protein Quantification Maximum” value in assay [1] is recorded as 45.7%. Moreover, the “CCNE1 HIBIT Protein Quantification Maximum” value in assay [2] was 41.1%.
On to `CC1CCCC1N1C(=O)C2(CC2)c2cnc(NC3CCN(S(=O)(=O)N4CC5(CCN(C(=O)CCCCCCCc6cccc7c6n(C)c(=O)n7C6CCC(=O)NC6=O)CC5)C4)CC3)nc21` (stereo not drawn) [Compound 4], for which, in assay [1], the “CDK2 HIBIT Protein Quantification Maximum” value is recorded as 56.5% and the DC50 came out at 6.7 nM. Besides, the “CCNE1 HIBIT Protein Quantification Maximum” value in assay [2] is 21.2%.
As to `C[C@H](c1cccc(S(=O)(=O)N2CC[C@H](Nc3ncc4c(n3)N([C@@H]3CCC[C@@H](O)C3)C(=O)C43CC3)[C@H](F)C2)c1)N1CCN(c2ccc3c(N4CCC(=O)NC4=O)nn(C)c3c2)C[C@@H]1C` [Compound 193], in assay [1], the “CDK2 HIBIT Protein Quantification Maximum” value is listed as 85% and it took 10.3 nM to reach half-maximal degradation (DC50). In assay [2], the “CCNE1 HIBIT Protein Quantification Maximum” value is 48%.
On to `CC1CCCC1N1C(=O)C2(CC2)c2cnc(NC3CCN(S(=O)(=O)C4CCN(C(=O)CCCCCCCc5cccc6c5n(C)c(=O)n6C5CCC(=O)NC5=O)C4)CC3)nc21` (stereo not drawn) [Compound 6], for which, in assay [1], the “CDK2 HIBIT Protein Quantification Maximum” value was 66.2% and the DC50 stood at 14.6 nM. In addition, the “CCNE1 HIBIT Protein Quantification Maximum” value in assay [2] was determined as 30%.
